Experimental data reported in EP2229935A1, “Peptide derivatives or pharmaceutically acceptable salts thereof, method for producing the same, use of said derivatives and pharmaceutical composition” (Nebolsin, Vladimir Evgenievich, priority 1997, dated 1999).
Marks after values point to notes of the source that are not given here.

How the values were obtained:
Male guinea pigs = experiment: Antigen-induced bronchospasm in actively sensitized guinea pigs; assay type: in vivo; settings: sensitized guinea pigs; 50 µg/kg per os, 72, 48 and 18 hours prior to bronchospasm induction
Description: Antiasthmatic effect of the test compounds was studied using an antigen-induced bronchospasm model in actively sensitized guinea pigs according to the Andersson method [Andersson P. Antigen induced bronchial anaphylaxis in actively sensitized guinea pig. Allergy (1980), Vol. 35, pp. 65-71].
Male guinea pigs were sensitized with intramuscular injection of 0.5 ml suspension comprising 20 micrograms ovalbumin (OVA, manufactured by the Sigma company [grade III]) and 100 mg Al(OH)3 per one animal. Anaphylaxis-provoking dose 150-200 µg/kg OVA in 0.1 ml normal saline was intravenously (v. jugularis) injected on day 26 after sensibilization. Bronchospasm induction and measuring external respiration parameters were carried out according to the method described in Yu-Hong L., Barnes P., Rogers D. Inhibition of neurogenic plasma exudation and bronchoconstriction by a K+ channel activator, BRL 38227, in guinea pig airways in vivo. Europ. J. Pharmacol. (?), Vol. 239, pp.257-259]. Measurement of respiration parameters was performed using a transducer (Ugo Basel, model 7020), connected with a cannula and a recorder (Millichrome), recording breathing amplitude. […] Efficacy of compounds was determined by change in bronchospasm value.
Inthal was used as a reference drug that was administered to animals at a dose 5 µg/kg according to the same dosage regimen as the test substances were administered. The control group of animals received equivalent amount of normal saline.
Groups of animals: group 1 - control; group 2 - animals given Inthal; group 3 - animals given oral compound XLIV; group IV - animals given oral compound III; group 5 - animals given intratracheal compound III; group 6 - animals given compound XLIX, group 7 - animals given compound XXXI, group 8 - animals given compound XLVI; group 9 - animals given compound VI, group 10 - animals given compound XLVIII.

mongrel male mice [1] = experiment: Delayed hypersensitivity induced by picryl chloride (TCB), local ointment; assay type: in vivo; settings: mice, TCB
Description: Effect study of the compounds on the delayed type hypersensitivity reaction induced in mice by 2.4.6-trichlorobenzol (TCB) was carried out according to the method of Tarayre et al. [Tarayre J.P., Barbara M., Aliaga M., Tisne-Versilles. Comparative actions of immunosuppressants, glucocorticoids and non-steroidal antiinflammatory drugs on various models of delayed hypersensitivity and on a non-immune inflammation in mice. Arzneim.-Forsch. Drug Res. (1990), Vol. 40, pip.1125-1131].
Studies were conducted on mongrel male mice with initial body mass 30-35 g. Each group included 10 animals. Mice were sensitized with 0.1 ml 3% TCB solution in acetone application on a shaved abdominal area. In 7 days, the anaphylaxis-provoking TCB dose (0.025 ml of 3% solution) was applied on both surfaces of the right ear. In 30 minutes 0.05 ml of the test ointment were rubbed into the same surfaces. 24 hours after edema induction, mice were sacrified, ears were cut off and weighed. Allergic reaction intensity was assessed by change in weight in grams of the right ear (the test one) in relation to the left ear (the control ear).
Allergic reaction inhibition expressed in percent was calculated according to the formula: 100-[(R-L(exper.))/(L):(R-L(control))/(L)x100](%) [formula] where R - the right ear weight, L - the left ear weight.
The test compounds were applied on the ear in the form of 1% and 5% ointment the base of which were 10% methylcellulose solution and propylene glycol at 1:1 ratio.
Groups of animals: • Group 1 - control, ointment base without active substance was applied on the ear of animals. • Group 2 - ointment base comprising 1% compound III was applied on the ear of animals. • Group 3 - ointment base comprising 1% compound XVII was applied on the ear of animals. • Group 4 - ointment base comprising 5% compound XLVIII was applied on the ear of animals.

white mongrel male rats = experiment: Paw edema induced by Freund's complete adjuvant; assay type: in vivo; settings: rats, FCA edema
Description: Experiment was carried out on white mongrel male rats weghing 280-300 g. The model of paw edema induced by Freund's complete adjuvant (FCA), was reproduced according to the method of Ezamuzie and Umezurike [Ezamuzie Ch., Umezurike C.C. Effect of histamine H2-receptor antagonists on acute inflammatory of the rat paw oedema. J. Pharmacol. (1989), Vol. 41, pp. 261-265]. Paw volume measurement was done using a plethysmograph (Ugo Basile). Inhibition of inflammatory reaction expressed in percent, as calculated according to the formula: 100-[(R-L(exper.))/(L):(R-L(control))/(L)x100](%) [formula] where R - the right paw volume, L - the left paw volume.
Each group included 10 animals.
Group of animals: • Group 1 - control, animals were administered 0.5 ml of 1% starch solution. • Group 2 - animals were administered the compound XLVIII. • Group 3 - animals were administered the compound III. • Group 4 - animals were administered Naproxene.

[2] = tested on: hepatic P-450 cytochrome system; experiment: Hexenal sleep duration in mice; assay type: in vivo; settings: CBF1 mice; oral 3 days, 50 µg/kg; control 25.91 ± 1.57
Procedure, shortened: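 Male mice (several inbred/hybrid lines, 18-20 g, n=10) and mongrel male guinea pigs (250-300 g, n=24) given compounds orally in drinking water for three days at 50 and 500 µg/kg. Hexenal given 24 h after last dose ([…]); sleep duration recorded in minutes.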

[3] = tested on: Strain Aichi of type A human influenza virus; assay type: in vivo; settings: 50 µg/kg orally
mongrel male mice [4] = experiment: Passive cutaneous anaphylaxis reaction; assay type: in vivo; settings: PCA, oral 3 days
Description: Experiments were carried out on mongrel male mice with initial body mass 22-24 g. Each group included 10 animals. Sensibilization of animals was accomplished by intradermal injection of 20-30 µl of the serum of mice obtained from preliminaryly immunized animals comprising reagent antibodies against chicken ovalbumin (OVA). […] In 48 hours after sensibilzation an anaphylaxis-provoking OVA dose (1 mg and 0,2 ml Evans blue in 0.2 ml normal saline) were intravenously injected to mice. Passive cutaneous anaphylaxis reaction intensity (PCA) was determined in 30 minutes by the size (area) of a blue spot on the internal skin surface in the site of reagent anibodies' administration. Spot size was measured in two mutually perpendicular directions and the result was expressed in mm^2.

peritoneal mast cells = experiment: Histamine secretion by peritoneal mast cells of sensitized rats; assay type: in vivo, Wistar male rats; settings: intraperitoneal 3 days; for Stimulated secretion, percent: OVA-stimulated
Description: Effects on histamine release. […] 2 ml of cellular suspension containing 0.1-0.2 x 10^6 MC/ml were incubated in the presence of […] OVA. Histamine secretion was expressed in percent to its total level. Histamine amount in samples was determined using spectrofluorimetric method [Short P.A., Burkhalter A., Cohn V.N. A method for fluorimetric assay of histamine in tissues. J. Pharmacol. Exper.
Animals of the control group were intraperitonelly injected normal saline (group 1). Each group included 10 animals.

hydroxyl radical = experiment: Hydroxyl radical formation in the Fenton reagent (chemiluminescence); assay type: biochemical
Description: Active oxygen forms (AOF) of different nature were generated in the following systems: • A. Hydroxyl radical - in the mixture of FeSO4 with H2O2 (the Fenton reagent) [Halliwell B. Superoxide-dependent formation of hydroxyl radicals in the presence of iron salts. […] Incubation medium comprised 5 mM KH2PO4 (pH 7.4); 5 mM FeSO4; 2 mM luminol. H2O2 at final concentration 5 mM was introduced into a cuvette through a dispencer following background luminescence recording of the reagents' mixture. 5 to 10 ml of the test compounds dissolved in water were at needed concentration introduced into a cuvette.
CL flash recording duration after mixing ingredients, depended on a particular process kinetics. For each system, CL light sum (mV) was determined in the control samples without preparations (I-) and in samples comprising respective concentrations of preparations (I+). To estimate CL inhibition (activation) degree, the I+/I- ratio (in relative units) was found in the studied systems.
When H2O2 was introduced into phosphate buffer comprising iron sulfate, CL flash occured which was caused by formation of predominantly hydroxyl radical in the reaction mixture.

mongrel guinea-pigs = experiment: Food anaphylaxis (active anaphylactic shock) in OVA-sensitized guinea pigs; settings: oral 3 days before provoking anaphylaxis
mongrel male mice [5] = experiment: Average lifetime of mice in a closed volume (hypoxia); assay type: in vivo; settings: without preliminary hypoxia, oral 2 hours before hypoxia, 300 mg/kg
Description: (§1) The tests of determining average lifetime of animals in a closed volume and on the model of acute hypobaric hypoxia at the minimum atmospheric rarefaction (170-185 mm Hg) were used to study antihypoxic activity of the compunds of general formula (I).
Mice were one by one placed into sealed glass jars and their lifetime was recorded.
The experiment was carried out on 90 mongrel male mice having initial body mass 20 ± 0,5 g housed in cages by 10 animals and given a standard vivarium ration. Average lifetime of mice in closed vessels having volume 250 ml was preliminarily determined and it was 22 to 25 minutes. All the groups included 10 animals each.
Experimental protocol: • a) - preliminary hypoxia for 12 minutes; • b) - first administration of a compound immediately following preliminary hypoxia; • c) - second administration of a compound in 24 hours after the first one, then daily for three days; • d) - recording lifetime of animals under hypoxic conditions in a sealed space 2 hours after the last administration of a compound.
The test compounds were dissolved in distilled water and orally administered to animals for 5 days.
Experimental groups: • Group 1 -(control) - without preliminary hipoxia with oral administration of distilled water for 5 days; • Groups 2 and 3 - administration of the compound XLIV using two doses 50 and 500 µg respectively; • Group 4 - oral administration of sodium oxybutyrate at a dose […] 2 hours before hypoxia; • Group 5 -(control)- with preliminary hypoxia for 12 minutes with subsequent administration of distilled water for 5 days; • Groups 6 and 7 - administration of the compound XLIV using two doses 50 and 500 µg respectively; • Groups 8 and 9 - administration of the compound III using two doses 50 and 500 µg respectively.

mongrel mice = experiment: Acute hypobaric hypoxia model (AHBH); assay type: in vivo; settings: single administration, 300,000 µg/kg
Description: as §1
Simulation of AHBH was done in a flow-through chamber at temperature 22°C. Experiments were carried out on mongrel mice with initial body mass 20 g at the minimum rarefaction 170-185 mm Hg, that corresponds to the altitude of 10500-11000 m. Lift rate was 35 m/second. Each group included 15 animals. Compounds were administered orally, lift on to altitude was performed 2 hours after the last administration.
Groups of animals: • Group 1 - intact control -administration of normal saline four times. • Groups 2 and 3 - administration of the compound III at doses 50 and 500 µg/kg for 4 days. • Group 4 - single administration of sodium oxybutyrate at a dose […].

[6] = intragastral four times 50 µg/kg

N[C@@H](CCC(=O)NCCc1c[nH]c2ccccc12)C(=O)O [compound XLVIII, γ -L-glutamyltryptamine]
Bronchospasm (percent of the maximum value) (Male guinea pigs): 22.0 3.4* percent of the maximum value | Reaction inhibition (%) (mongrel male mice [1]; 5% ointment): 54% | weight increment (mongrel male mice [1]; 5% ointment): 3.7 ± 0.81 g | Weight of years (g) Right (mongrel male mice [1]; 5% ointment on right ear 30 minutes after challenge, 24 hours): 17.9 ± 0.94 g | Weight of years (g) left (mongrel male mice [1]; left (control) ear of animals given 5% ointment): 14.2 ± 0.98 g | Inflammation inhibition (%) (white mongrel male rats; [6]): 19% | Volume increment (white mongrel male rats; [6]): 0.65 ± 0.04 | Volume of paws (conditional units) left (white mongrel male rats; [6]): 1.30 ± 0.62 conditional units | Volume of paws (conditional units) Right (white mongrel male rats; intragastral four times 50 µg/kg 72, 48, 24 and 1 hour before FCA): 1.95 ± 0.48 conditional units | Hexenal sleep duration (minutes) [2]: 16.27 ± 1.26** minutes | MLT, days ([3]; series with control - 1 (5.76), 3 days before and 10 days following infection): 9.58*^1 days | Survival rate in percent ([3]; series with control - 1 (16.7)): 34.5*^1% | Protection degree in percent ([3]; series with control - 1): 17.8%

CN(C)CCN(Cc1ccc(Cl)cc1)c1ccccn1 [Suprastine, reference compound]
Percent of the reaction inhibition (mongrel male mice [4]; 10 µg/kg): 7.6% | Reaction intensity, mm^2 (mongrel male mice [4]; 10 µg/kg): 82.1 ± 18.1 mm^2 | Stimulated secretion, percent (peritoneal mast cells; 1000 µg/kg): 7.02% | Histamine level, µg/10^6 MC (peritoneal mast cells; 1000 µg/kg): 16.24*^1 µg/10^6 MC | Spontaneous secretion, percent (peritoneal mast cells; 1000 µg/kg): 5.62%

N[C@H](CCC(=O)NCCc1c[nH]cn1)C(=O)O [compound XLV, γ -L-, D-glutamylhistamine]
Stimulated secretion, percent (peritoneal mast cells; 50 µg/kg): 2.32*^1,3% | Histamine level, µg/10^6 MC (peritoneal mast cells; 50 µg/kg): 16.90*^1 µg/10^6 MC | Spontaneous secretion, percent (peritoneal mast cells; 50 µg/kg): 9.63*^1,3% | relative effect: I+/I- (hydroxyl radical; 1 µM): 1.0 | Chemiluminiscence intensity (mV) + σn-1 (hydroxyl radical; 1 µM, control of the series as in the table): 7666 ± 101 mV | relative effect: I+/I- (hydroxyl radical; 0.01 mM): 0.95 | Chemiluminiscence intensity (mV) + σn-1 (hydroxyl radical; 0.01 mM, control of the series as in the table): 7443 ± 267 mV | relative effect: I+/I- (hydroxyl radical; 0.1 mM): 0.74 | Chemiluminiscence intensity (mV) + σn-1 (hydroxyl radical; 0.1 mM, control of the series as in the table): 5800 ± 247 mV | relative effect: I+/I- (hydroxyl radical; 1 mM): 0.16 | Chemiluminiscence intensity (mV) + σn-1 (hydroxyl radical; 1 mM, control of the series 7839 ± 171, 1120 ± 163, 4974 ± 283 or 1332 ± 172): 2195 ± 18 mV | Anaphylactic index (mongrel guinea-pigs; 50 µg/kg): 0.90* | Lethality in percent (mongrel guinea-pigs; 50 µg/kg): 6.7** percent | Seizures in percent (mongrel guinea-pigs; 50 µg/kg): 15.5* percent

O=C(O)CCCO [sodium oxybutyrate, reference compound]
Lifetime (seconds) (mongrel male mice [5]): 2103,9±100,5**^1 seconds | Effect in percent (mongrel mice; lifetime relative to control): 119 ± 4,4% | Lifetime under hypoxic conditions (minutes) (mongrel mice; mice, 170-185 mm Hg): 364,3 ± 13,5 minutes

CCOC(=O)N1CCC(=C2c3ccc(Cl)cc3CCc3cccnc32)CC1 [Claritine, reference compound]
Percent of the reaction inhibition (mongrel male mice [4]; 2 µg/kg): 92.8% | Reaction intensity, mm^2 (mongrel male mice [4]; 2 µg/kg): 6.4 ± 2.3**^2 mm^2 | Anaphylactic index (mongrel guinea-pigs; 1000 µg/kg): 2.03 | Lethality in percent (mongrel guinea-pigs; 1000 µg/kg): 25.0% | Seizures in percent (mongrel guinea-pigs; 1000 µg/kg): 53.3%
